The record followed here is US20230257385A1, “SALT AND SOLID FORMS OF TABERNANTHALOG” (priority 2021, published 2023).

Series [1] can be described thus: Examination of variability of fusion temperature of sorbate Form A (DSC). In kind it is physicochemical. As to the method:
The factors that were assessed to explain the observed variability in fusion temperature found amongst Form A samples were sample loading, preferred orientation and particle size/homogeneity (Table 271). A weak relationship between sample loading and melt onset was observed, the remainder of the factors examined, appeared to be unrelated.
DSC data were collected from 25 to 220C at a scan rate of at 10° C. min^−1 (Table 292).

A short description of series [2]: Heat-up/cool down (HUCD) crystallization of the monofumarate salt (Experiment Reference 11). In kind it is physicochemical. Particulars: for XRPD (oven dried): form of product from HUCD crystallization of tabernanthalog fumarate Sample Reference 1 (Pattern #1), solvents per sample as in E1; for Observations (t = 0 @ T = 20° C.): input tabernanthalog fumarate Sample Reference 1 (Pattern #1), Solvent A/B: 11-A acetone/water, 11-B acetonitrile/water, 11-C butanol/water, 11-D tBME/methanol, 11-E DCM/methanol, 11-F ethanol/water, 11-G methyl acetate/water/methanol, 11-H 2-propanol/water, 11-1 methanol, 11-J MEK/water, 11-K 2-MeTHF/methanol, 11-L THF/water, 11-M toluene/methanol, 11-N water, 11-O dioxane/water, 11-P CPME/methan. As to the method: Separate portions of the tabernanthalog monofumarate salt (Pattern #1, Sample Reference 1, ca 75 mg, 1.0 wt.) were charged to separate vessels. The appropriate solvents (750 μl, 10.0 vol, refer to Table 106) were charged to the relevant vessels and subsequent charges of the appropriate co-solvent were made to accomplish dissolution at reflux. The solutions were cooled to 18 to 23° C. and allowed to stand undisturbed, until crystallization was judged complete. After this time the products were isolated by centrifugation, washed with recycled maturation solvent, dried under reduced pressure at 40° C. and analyzed by XRPD for evidence of alternative crystalline forms.

The nature of series [3]: Targeted solubility of Tabernanthalog (native) in common solvents (Example 8, Experiment 1). In kind it is physicochemical. As to the method: The solutions were observed after cooling to determine if crystallization occurred on standing at room temperature.
To portions of tabernanthalog (native) (50 mg, 1 wt), were added 5 vol aliquots of the relevant solvent (Table 198). Observations were made at 20° C., 40° C. and reflux and the mixtures were cooled to 20° C. Contingent upon these findings, an additional 5 vol aliquot of the relevant solvent was added and the process was repeated until 20 vol of solvent was added in total.

The format of series [4] is physicochemical. Conditions: salt screen, Experiment 2. As to the method:
Tabernanthalog (native) (50 mg, 1 wt) was charged to a solution of the relevant counter ion (1.0 mol equivalence of counter ion) in ethanol (5.0 vol, 250 μl). The mixtures were warmed to 85° C. and small aliquots of water were added until dissolution occurred (Table 212 for additional charges of solvent). The solutions were cooled and allowed to stand undisturbed under sub-ambient conditions overnight (Table 211). […] Products were isolated via centrifugation. The corresponding pellets were sub-sampled and analyzed wet by XRPD; after which, they were dried at 40° C. under reduced pressure over 20 h and reanalyzed by XRPD. […] Once the crystallization experiments were completed, salt formation was confirmed by ^1H NMR, XRPD, DSC and TGA.

[5] abbreviates: DSC 25-220° C. at 10° C. min^−1, batches of sorbate salt Form A.
Where [6] appears, read: DSC 25 to 220C at 10° C. min−1, tabernanthalog sorbate Form A samples.
[7] abbreviates: DSC melt endset, 25 to 220C at 10° C. min−1, tabernanthalog sorbate Form A samples.
Setting [8] is: DSC melt peak, 25 to 220C at 10° C. min−1, tabernanthalog sorbate Form A samples.

For `C/C=C/C=C/C(=O)O.COc1ccc2c3c([nH]c2c1)CCN(C)CC3` [Experiment 6-Sample D1], in series [1] (setting [5]), the Endset amounted to 150.2 °C, the melt enthalpy is −105.7 Jg^−1, the melt onset is 144.0 °C and the peak was 148.0 °C. In series [1] (setting [6]), this molecule had a melt enthalpy of −166.35 Jg-1 and a melt onset of 144.03 °C. This molecule had an Endset in series [1] (setting [7]) of 150.17 °C. The same molecule yielded a peak in series [1] (setting [8]) of 148.00 °C.

For `C/C=C/C=C/C(=O)O.COc1ccc2c3c([nH]c2c1)CCN(C)CC3` [Experiment 6-Sample E1], in series [1] (setting [5]), the Endset worked out at 151.6 °C, the melt enthalpy was −105.7 Jg^−1, the melt onset amounted to 145.0 °C and the peak worked out at 148.8 °C. In series [1] (setting [6]), this molecule gave a melt enthalpy of −105.68 Jg-1 and a melt onset of 145.00 °C. In addition, the Endset in series [1] (setting [7]) was found to be 151.59 °C. Also, the peak in series [1] (setting [8]) is 148.83 °C.

As for `C/C=C/C=C/C(=O)O.COc1ccc2c3c([nH]c2c1)CCN(C)CC3` [Experiment 7-Sample A neat], in series [1] (setting [5]), the Endset was found to be 148.5 °C, the melt enthalpy was −122.5 Jg^−1, the melt onset came out at 144.4 °C and the peak turned out to be 146.8 °C. Further, in series [1] (setting [6]), the melt enthalpy is on record as −122.47 Jg-1 and the melt onset turned out to be 144.39 °C. This molecule yielded an Endset in series [1] (setting [7]) of 148.53 °C. The same molecule yielded a peak in series [1] (setting [8]) of 146.83 °C.

For the molecule `C/C=C/C=C/C(=O)O.COc1ccc2c3c([nH]c2c1)CCN(C)CC3` [Pattern A1270-20-V2], in series [1] (setting [5]), the Endset was found to be 152.0 °C, the melt enthalpy is reported as −84.1 Jg^−1, the melt onset turned out to be 143.9 °C and the peak worked out at 148.8 °C. In series [1] (setting [6]), this molecule returned a melt enthalpy of −84.09 Jg-1 and a melt onset of 143.89 °C. In addition, the Endset in series [1] (setting [7]) turned out to be 151.95 °C. The peak in series [1] (setting [8]) amounted to 148.83 °C.

Consider `COc1ccc2c3c([nH]c2c1)CCN(C)CC3.O=C(O)/C=C/C(=O)O` [Sample 11-1], for which, in series [2], the “XRPD (oven dried)” value is “Pattern #6b” and the “Observations (t = 0 @ T = 20° C.)” value is given as “suspension”.

Consider `COc1ccc2c3c([nH]c2c1)CCN(C)CC3.O=C(O)/C=C/C(=O)O` [Sample 11-A], for which, in series [2], the “XRPD (oven dried)” value is recorded as “Pattern #6a” and the “Observations (t = 0 @ T = 20° C.)” value was “suspension”.

For `COc1ccc2c3c([nH]c2c1)CCN(C)CC3.O=C(O)/C=C/C(=O)O` [Sample 11-B], in series [2], the “XRPD (oven dried)” value was “Pattern #6a” and the “Observations (t = 0 @ T = 20° C.)” value is given as “cloudy”.

With `COc1ccc2c3c([nH]c2c1)CCN(C)CC3.O=C(O)/C=C/C(=O)O` [Sample 11-C], in series [2], the “XRPD (oven dried)” value is reported as “Pattern #6a” and the “Observations (t = 0 @ T = 20° C.)” value is “suspension”.

Turning to `COc1ccc2c3c([nH]c2c1)CCN(C)CC3.O=C(O)/C=C/C(=O)O` [Sample 11-D], in series [2], the “XRPD (oven dried)” value is recorded as “Pattern #5” and the “Observations (t = 0 @ T = 20° C.)” value is recorded as “cloudy”.

`COc1ccc2c3c([nH]c2c1)CCN(C)CC3.O=C(O)/C=C/C(=O)O` [Sample 11-E]: in series [2], the “XRPD (oven dried)” value is “Pattern #6b” and the “Observations (t = 0 @ T = 20° C.)” value is on record as “suspension”.

Regarding `COc1ccc2c3c([nH]c2c1)CCN(C)CC3.O=C(O)/C=C/C(=O)O` [Sample 11-F], in series [2], the “XRPD (oven dried)” value was “Pattern #6a” and the “Observations (t = 0 @ T = 20° C.)” value is recorded as “suspension”.

As for `COc1ccc2c3c([nH]c2c1)CCN(C)CC3.O=C(O)/C=C/C(=O)O` [Sample 11-G], in series [2], the “XRPD (oven dried)” value was “Pattern #1” and the “Observations (t = 0 @ T = 20° C.)” value is listed as “suspension”.

For `COc1ccc2c3c([nH]c2c1)CCN(C)CC3.O=C(O)/C=C/C(=O)O` [Sample 11-H], in series [2], the “XRPD (oven dried)” value was “Pattern #6a” and the “Observations (t = 0 @ T = 20° C.)” value was “cloudy”.

On to `COc1ccc2c3c([nH]c2c1)CCN(C)CC3.O=C(O)/C=C/C(=O)O` [Sample 11-J], for which, in series [2], the “XRPD (oven dried)” value is given as “Pattern #6a” and the “Observations (t = 0 @ T = 20° C.)” value is reported as “suspension”.

In the case of `COc1ccc2c3c([nH]c2c1)CCN(C)CC3.O=C(O)/C=C/C(=O)O` [Sample 11-K], in series [2], the “XRPD (oven dried)” value is recorded as “Pattern #5” and the “Observations (t = 0 @ T = 20° C.)” value is “suspension”.

Take `COc1ccc2c3c([nH]c2c1)CCN(C)CC3.O=C(O)/C=C/C(=O)O` [Sample 11-L]: in series [2], the “XRPD (oven dried)” value is listed as “Pattern #6a” and the “Observations (t = 0 @ T = 20° C.)” value was “solution”.

As for `COc1ccc2c3c([nH]c2c1)CCN(C)CC3.O=C(O)/C=C/C(=O)O` [Sample 11-M], in series [2], the “XRPD (oven dried)” value is listed as “Pattern #6b” and the “Observations (t = 0 @ T = 20° C.)” value is recorded as “suspension”.

With `COc1ccc2c3c([nH]c2c1)CCN(C)CC3.O=C(O)/C=C/C(=O)O` [Sample 11-N], in series [2], the “XRPD (oven dried)” value is “Pattern #6a” and the “Observations (t = 0 @ T = 20° C.)” value was “suspension”.

As to `COc1ccc2c3c([nH]c2c1)CCN(C)CC3.O=C(O)/C=C/C(=O)O` [Sample 11-O], in series [2], the “XRPD (oven dried)” value is “Pattern #6a” and the “Observations (t = 0 @ T = 20° C.)” value is “suspension”.

For `COc1ccc2c3c([nH]c2c1)CCN(C)CC3.O=C(O)/C=C/C(=O)O` [Sample 11-P], in series [2], the “XRPD (oven dried)” value was “Pattern #5” and the “Observations (t = 0 @ T = 20° C.)” value is on record as “suspension”.

On to `COc1ccc2c3c([nH]c2c1)CCN(C)CC3.O=C(O)/C=C/C(=O)O` [Sample 11-Q], for which, in series [2], the “XRPD (oven dried)” value is reported as “Pattern #5” and the “Observations (t = 0 @ T = 20° C.)” value is on record as “solution”.

For `COc1ccc2c3c([nH]c2c1)CCN(C)CC3` [Tabernanthalog (native), 8-Methoxy-3-methyl-2,4,5,6-tetrahydro-1H-azepino[4,5-b]indole], the Solid on cooling entry in series [3] (2-Methyl THF, 5 vol) is “Yes”; in series [3] (2-Propanol, 5 vol), “Yes”; in series [3] (Acetone, 5 vol) it was “Yes”; in series [3] (Acetonitrile, 10 vol), “Yes”; in series [3] (Chlorobenzene, 5 vol), “Yes”; in series [3] (Dichloromethane, 5 vol), “Yes”. In addition, the Solid on cooling result is listed as “Yes” in series [3] (Ethanol, 5 vol); “Yes” in series [3] (Ethyl acetate, 10 vol); “Yes” in series [3] (Ethyl formate, 10 vol); “Yes” in series [3] (Isopropyl acetate, 15 vol); “Yes” in series [3] (Methanol, 5 vol); “Yes” in series [3] (Methyl acetate, 10 vol). Further, the Solid on cooling entry in series [3] (Methylethyl ketone, 5 vol) is listed as “Yes”; in series [3] (Nitromethane, 5 vol), “Yes”; in series [3] (Tetrahydrofuran, 5 vol), “Yes”; in series [3] (Toluene, 15 vol) it was “Yes”. The “Solution at reflux” value is listed as “✓” in series [3] (2-Methyl THF, 5 vol); “✓” in series [3] (2-Propanol, 5 vol); “✓” in series [3] (Acetone, 5 vol); “✓” in series [3] (Acetonitrile, 10 vol); “✓” in series [3] (Chlorobenzene, 5 vol); “✓” in series [3] (Dichloromethane, 5 vol). Moreover, the “Solution at reflux” value in series [3] (Ethanol, 5 vol) is “✓”; in series [3] (Ethyl acetate, 10 vol), “✓”; in series [3] (Ethyl formate, 10 vol) it was “✓”; in series [3] (Isopropyl acetate, 15 vol), “✓”; in series [3] (Methanol, 5 vol), “✓”; in series [3] (Methyl acetate, 10 vol) it was “✓”. Further, the “Solution at reflux” value is given as “✓” in series [3] (Methylethyl ketone, 5 vol); “✓” in series [3] (Nitromethane, 5 vol); “✓” in series [3] (Tetrahydrofuran, 5 vol); “✓” in series [3] (Toluene, 15 vol). Moreover, the “solubility in common solvents at 20° C.” value in series [3] (19 common solvents) is “freely soluble in most common solvents investigated at 20° C., apart from tBME, heptane and water”. For the same molecule, in series [3] (19 common solvents, various volumes), the “solubility in common solvents at reflux” value is “soluble in 16 solvents at reflux”.

As to `COc1ccc2c3c([nH]c2c1)CCN(C)CC3.O=C(O)CCCCC(=O)O` [Tabernanthalog · Adipate], in series [4], the “Discrete melt (DSC)?” value was “✓”, the “Flat baseline (DSC)?” value is “✓” and the “Unique XRPD?” value is listed as “✓”.

Consider `COc1ccc2c3c([nH]c2c1)CCN(C)CC3.O=C(O)CC(O)(CC(=O)O)C(=O)O` [Tabernanthalog · Citrate], for which, in series [4], the “Unique XRPD?” value is “v. Disordered”.
